Test results from patent publication US8765803B1, “Rab7 GTPase inhibitors and related methods of treatment” (STC.UNM, priority 2011, dated 2014).
Values joined by “and” are separate entries in the source; they are usually repeats but may differ in a detail not shown here. Equal entries are not always repeated. Where two headings read alike, the source gives them in different places.

Assays:
[1] = molecular target: Rab7 wt; details: previously determined (ref 33); read-out: Equilibrium dissociation constant Kd for wild-type Rab7; cited from earlier work
[2] = Stability in PBS at room temperature; format: physicochemical; details: 23° C., after 48 hours, no antioxidants, DMSO below 0.1%
Protocol: Stability, depicted as closed circles in the graph, was assessed at room temperature (23° C.) in PBS (no antioxidants or other protectants and DMSO concentration below 0.1%). Stability data is depicted as a graph showing the loss of compound with time over a 48 hr period with a minimum of 6 time points and providing the percent remaining compound at end of the 48 hr period.

[3] = system: EGFR degradation in HeLa-Rab7 wt cells; assay: EGFR degradation in Rab7 overexpressing HeLa cells; format: cell-based, human; details: 100 μM
Protocol: EGFR degradation was also monitored in HeLa cells with some minor modifications. […] Cell lysates were prepared at various time points and immunoblotted for total EGFR while actin served as a loading control.

[4] = system: EGFR degradation in SCC-12F cells; assay: EGFR degradation in SCC-12F cells; format: cell-based; details: human keratinocytes (SCC-12F), 10-100 μM
Protocol: SCC-12F cells were seeded in 12-well plates at 0.12×10^6 cells/well and allowed to grow overnight. On the day of the experiment, the cells were starved in serum free medium containing 25 μg/mL cycloheximide for 2 h before compounds at different concentrations were added. The cells were treated for 30 min. Then, ligand EGF was added to 20 nM. At time points of 0, 15, 30, 60, and 120 min after the EGF addition, the suspension medium was removed and the cell was quickly washed with cold PBS and frozen at −80° C. For electrophoresis and blotting, CelLytic™M Cell Lysis buffer containing protease inhibitor cocktails was added to the frozen cells to obtain the cell lysates according to the protocols from the manufacture. Protein concentration was quantified using BCA assay kit. For SDS-PAGE, 10 μg protein was loaded to each lane and proteins transferred to nitrocellulose. The nitrocellulose membranes were probed with antibodies directed against EGFR or actin and detected using peroxidase conjugated secondary antibodies and SuperSignal West Dura. Signal intensities were measured and quantified using a ChemiDoc™ XRS+ molecular imager coupled with Image Lab software.

[5] = system: Rab7 wt; assay: Equilibrium binding with varying fluorescent nucleotide at fixed CID1067700 concentration
Protocol: Dose response assays were conducted in two different modes. […].
[…]. […] […].

[6] = system: VLA-4 integrin; assay: LDV binding assay in U937 ΔST cells; format: cell-based; details: FITC-LDV 4 nM, after N-formyl peptide stimulation
Protocol: The procedure followed the established protocols described previously. U937 ΔST cells (0.4−0.8×10^6 cells/mL) were constantly stirred with a magnetic stir bar at 500 rpm in a test tube. The fluorescence was recorded on a FACScan flow cytometer. The base line fluorescence of the cells was established for 30s. FITC-LDV at a concentration of 4 nM was then added. After the fluorescence stabilized at around 120s, the chemotactic ligand N-formyl peptide was added for stimulation resulting activation of VLA-4 integrin and additional FITC-LDV binding. […] Fluorescence was continually recorded until no further change was observed. The inhibition percentage was calculated according to Equation 1.

[7] = Chemical stability towards L-glutathione in DMSO, LCMS; format: physicochemical; details: 1.2-3.0 eq L-glutathione in DMSO, 37° C., up to 72 h
Protocol: The three experiments were monitored by LCMS at each of the following time points: 1 h, 2 h, 4 h, 24 h, 48 h, and 72 h. Procedure: […]

[8] = system: U937 cells; assay: Cytotoxicity of compounds, cell density and viability; format: cell-based
Protocol: U937 cells were grown to a density of 0.4×10^6 cells/mL Compounds were added to a final concentration of 20 μM or otherwise indicated. As a control, cells were treated with DMSO of the same volume. After 24 h incubation, the density and viability of the cells were measured with Countess Cell Counter according to the protocols from the manufacturer.

[9] = system: Ras-related GTPases (Cdc42 wt, Rac1wt, Rac1Q61L, Rab2 wt, Rab7 wt, and H-Ras wt); details: secondary multiplex dose response
Protocol: The eight GTPases were grouped into two sets: Rab7, H-Ras wild type and its V12 mutant, and Cdc42 and its L61 mutant were assayed in a buffer containing 1 mM EDTA, while Rho, Rac1 and its L61 mutant, and Cdc42 and its L61 mutant were assayed in the same buffer but instead containing 1 mM Mg^2+ with Cdc42 and its mutant being tested in both buffers. Besides 1 mM EDTA or 1 mM Mg^2+, the buffer contained 30 mM HEPES, pH 7.5, 40 mM KCl, 100 mM NaCl, 0.1% (v/v) NP-40 and 1% BSA. For each multiplex reaction, an extra set of beads was included to serve as scavengers to bind any proteins that dissociate from their assigned bead set and thereby reduce interference due to protein dissociation during the assay. […] Briefly, each individual GST-tagged enzyme was incubated with 4 μm glutathione-coated microsphere beads overnight with gentle rotation. The microsphere beads have different red fluorescence dyes incorporated and therefore could be separated by a flow cytometer. The unbound enzyme was removed by sufficient washing with the buffer. The bead sets were then combined and dispensed to 384-well plates at 5 μL/well. For one plate, 0.5 μg each of the enzymes and 4.0×10^4 of each bead were used. Then 100 nL compound was added using Biomek FX followed by the addition of 5 μL/well of BODIPY-FL-GTP (ribose-linked BODIPY). […] The beads were aspirated and delivered with the HyperCyt® instrument and read on CyAnADP flow cytometer. Forward scatter and side scatter was used to define the whole bead population. […] The data was analyzed by the HyperView® software developed by Dr. Bruce Edward at the University of New Mexico.
Briefly, six sets of beads (each with a unique red fluorescence intensity) were individually coated with six representative GST-tagged Ras-related GTPases (Cdc42 wt, Rac1wt, Rac1Q61L, Rab2 wt, Rab7 wt, and H-Ras wt) (FIG. 29A). The individually conjugated beads were then assayed in the presence of individual compounds in the Molecular Libraries Small Molecule Repository using a HyperCyt flow cytometry to identify molecules that altered the binding of fluorescent nucleotide to Ras-family GTPases (36).

[10] = system: Rab7 wt; assay: Nucleotide dissociation assay under equilibrium conditions; details: CID1067700 10 μM, compared with unlabeled GDP 10 μM
Protocol: This low level bead associated fluorescence was subtracted from specific binding to obtain accurate measurement of the off rates. Data normalization was performed by subtracting dilution only values from competitor treated experimental values.
The experiment was carried out by pre-binding BODIPY-GTP or BODIPY-GDP to GST-tagged Rab7 protein to equilibrium and then assaying for the loss of fluorescence over time occasioned by the release of bound nucleotide (FIG. 31A-D). […] Dissociation rate constants were calculated from data fit to exponential functions using Prism software.

[11] = Solubility in PBS and assay media, UV absorbance detection; format: physicochemical; details: read-out: Solubility
Protocol: Solubility was measured in phosphate buffered saline (PBS) at room temperature (23° C.). PBS by definition is 137 mM NaCl, 2.7 mM KCl, 10 mM sodium phosphate dibasic, 2 mM potassium phosphate monobasic and a pH of 7.4. Detection was based on UV absorbance. […]. Solubility was also assessed in the each of the four media used in the individual assays. […]

Q: For “BODIPY FL GTP 2′-(or 3′)-O—[N-(2-aminoethyl)urethane] [BODIPY-GTP]”, which Kd [1] is on record?
A: Its Kd is 100 nM.

Q: With “BODIPY FL GDP 2′-(or -3′)-O—[N-(2-aminoethyl)urethane] [BODIPY-GDP]” as the molecule, how does the Kd [1] read?
A: The Kd was 40 nM.

Q: Which results are given for CC1(C)Cc2c(sc(NC(=S)NC(=O)c3ccccc3)c2C(=O)O)CO1 [CID1067700, 2-(3-benzoylthioureido)-5,5-dimethyl-5,7-dihydro-4H-thieno[2,3-c]pyran-3-carboxylic acid]?
A: Percent remaining compound [2]: 77%; Growth factor receptor (EGFR) degradation [3]: decreased; Growth factor receptor (EGFR) degradation [4]: decreased; Increase of Ki (Cheng Prusoff) between inhibition of BODIPY-GTP and BODIPY-GDP [5]: 2 fold; Effect on Rab7 wt Bmax for BODIPY-GTP ([5]; CID1067700 100 nM): does not alter; Effect on Rab7 wt Bmax for BODIPY-GDP ([5]; CID1067700 200 nM): does not alter; Increase in observed EC50 for both nucleotides in the presence of CID1067700 ([5]; CID1067700 fixed at 100-200 nM): ≤ 3 fold; VLA4 binding with LDV peptide [6]: inhibits; Glutathione conjugate formation by LCMS [7]: did not result in LCMS detection of any conjugates or other product peaks; Glutathione conjugate formation by LCMS ([7]; listed as SID 85747738): No glutathione conjugate or other peaks were observed; Cell viability of U937 cells after treatment ([8]; 24 h, 20 μM): 94%; Cytotoxicity in U937 cells ([8]; 24 h in growth medium): no obvious cytotoxicity; EC50 ([9]; read-out: EC50 against all tested GTPases, fluorescent GTP): 20 to 500 nM; Inhibition against all tested GTPases [9]: at least 40%; Effect on rate of release of bound BODIPY-GTP or BODIPY-GDP [10]: no effect; solubility ([11]; Dose Response-EDTA buffer, pH 7.5, aqueous with cosolvent or surfactant or cyclodextrin, Dose Response-EDTA buffer: 30 mM HEPES, pH 7.5, 100 mM KCl, 20 mM NaCl, 0.01% NP-40, 1 mM EDTA): 69.7 µg/mL; solubility ([11]; Dose Response-EDTA buffer, pH 7.5, aqueous with cosolvent or surfactant or cyclodextrin, Dose Response-EDTA buffer): 178 µM; solubility ([11]; Dose Response-Mg buffer, pH 7.5, aqueous with cosolvent or surfactant or cyclodextrin, Dose Response-Mg buffer: 30 mM HEPES, pH 7.5, 100 mM KCl, 20 mM NaCl, 0.01% NP-40, 1 mM MgCl2): 68.1 µg/mL; solubility ([11]; Dose Response-Mg buffer, pH 7.5, aqueous with cosolvent or surfactant or cyclodextrin, Dose Response-Mg buffer): 174 µM; solubility ([11]; phosphate buffered saline (PBS), 23 °C, pH 7.4, aqueous buffer, 1 × PBS, pH 7.4, room temperature (23° C.)): > 116 µg/mL and > 297 µM
